From the NIST ThermoML archive (doi:10.1021/je050005h)
Numbers after ± are expanded uncertainties.

Key:
[1] = xn = mol fraction of the nth substance listed; conditions: 101 kPa, Liquid
[2] = 101 kPa, Liquid

O [water] + C1CCNC1
[1], x2 = 0
Conditions	kinematic viscosity [m2/s]	mass density [kg/m3]
293.15 K	9.9e-07 ± 4.9e-08	–
303.15 K	8.1e-07 ± 4.1e-08	–
313.15 K	6.66e-07 ± 3.5e-08	–
323.15 K	5.61e-07 ± 3.1e-08	988.02 ± 1.1

C1CCNC1 [pyrrolidine]
[2]
Conditions	kinematic viscosity [m2/s]	mass density [kg/m3]
293.15 K	9.54e-07 ± 4.8e-08	859.87 ± 2.8
303.15 K	8.27e-07 ± 4.2e-08	850.11 ± 2.9
313.15 K	7.43e-07 ± 3.9e-08	840.24 ± 3
323.15 K	6.41e-07 ± 3.4e-08	833.88 ± 3.1

C1CCNCC1 [piperidine]
[2]
Conditions	kinematic viscosity [m2/s]	mass density [kg/m3]
293.15 K	1.79e-06 ± 8.3e-08	863.81 ± 2.7
303.15 K	1.49e-06 ± 7e-08	854.5 ± 2.8
313.15 K	1.25e-06 ± 6e-08	845.08 ± 2.9
323.15 K	1.06e-06 ± 5.2e-08	835.56 ± 3.1

C1CCNCC1 [piperidine] + O
[1]
Conditions	kinematic viscosity, 293.15 K [m2/s]	kinematic viscosity, 303.15 K [m2/s]	kinematic viscosity, 313.15 K [m2/s]	kinematic viscosity, 323.15 K [m2/s]	mass density, 293.15 K [kg/m3]	mass density, 303.15 K [kg/m3]	mass density, 313.15 K [kg/m3]	mass density, 323.15 K [kg/m3]
x1 = 0.0055	1.11e-06 ± 5.4e-08	8.82e-07 ± 4.4e-08	7.18e-07 ± 3.7e-08	5.98e-07 ± 3.2e-08	997.07 ± 1	994.34 ± 1.1	990.68 ± 1.1	986.17 ± 1.2
x1 = 0.011	1.21e-06 ± 5.8e-08	9.53e-07 ± 4.7e-08	7.72e-07 ± 4e-08	6.36e-07 ± 3.4e-08	995.89 ± 1.1	992.89 ± 1.1	989.03 ± 1.2	984.42 ± 1.2
x1 = 0.028	1.5e-06 ± 7.1e-08	1.2e-06 ± 5.8e-08	9.42e-07 ± 4.7e-08	8.12e-07 ± 4.1e-08	992.43 ± 1.1	987.87 ± 1.2	982.66 ± 1.2	976.92 ± 1.3
x1 = 0.0573	2.2e-06 ± 1e-07	1.74e-06 ± 8.1e-08	1.33e-06 ± 6.3e-08	1.07e-06 ± 5.2e-08	985.56 ± 1.2	979.56 ± 1.3	973.25 ± 1.4	966.6 ± 1.4
x1 = 0.0986	3.55e-06 ± 1.6e-07	2.55e-06 ± 1.2e-07	1.88e-06 ± 8.7e-08	1.47e-06 ± 7e-08	974.58 ± 1.3	967.57 ± 1.4	960.35 ± 1.5	952.86 ± 1.6
x1 = 0.1795	5.94e-06 ± 2.5e-07	4.01e-06 ± 1.8e-07	2.81e-06 ± 1.3e-07	2.14e-06 ± 9.8e-08	955.67 ± 1.6	947.6 ± 1.7	939.32 ± 1.8	930.84 ± 1.9
x1 = 0.2672	7.62e-06 ± 3e-07	5.06e-06 ± 2.2e-07	3.48e-06 ± 1.5e-07	2.62e-06 ± 1.2e-07	940.18 ± 1.8	931.55 ± 1.9	922.71 ± 2	913.66 ± 2.1
x1 = 0.3536	8.02e-06 ± 3.1e-07	5.42e-06 ± 2.3e-07	3.71e-06 ± 1.6e-07	2.68e-06 ± 1.2e-07	927.85 ± 1.9	918.89 ± 2	909.73 ± 2.1	900.37 ± 2.2
x1 = 0.4387	7.04e-06 ± 2.8e-07	4.97e-06 ± 2.2e-07	3.49e-06 ± 1.5e-07	2.53e-06 ± 1.1e-07	917.5 ± 2	908 ± 2.1	899 ± 2.3	889 ± 2.4
x1 = 0.5225	6.09e-06 ± 2.5e-07	4.37e-06 ± 1.9e-07	3.1e-06 ± 1.4e-07	2.31e-06 ± 1.1e-07	906.51 ± 2.2	897.28 ± 2.3	887.84 ± 2.4	878.22 ± 2.5
x1 = 0.6458	4.49e-06 ± 2e-07	3.22e-06 ± 1.4e-07	2.33e-06 ± 1.1e-07	1.83e-06 ± 8.5e-08	892.99 ± 2.3	883.65 ± 2.5	874.16 ± 2.6	864.51 ± 2.7
x1 = 0.8454	–	–	–	–	875.08 ± 2.6	865.74 ± 2.7	856.27 ± 2.8	846.67 ± 2.9
x1 = 0.8455	2.6e-06 ± 1.2e-07	2e-06 ± 9.2e-08	1.62e-06 ± 7.6e-08	1.31e-06 ± 6.3e-08	–	–	–	–
x1 = 1	1.79e-06 ± 8.3e-08	1.49e-06 ± 7e-08	1.25e-06 ± 6e-08	1.06e-06 ± 5.2e-08	863.81 ± 2.7	854.5 ± 2.8	845.08 ± 2.9	835.56 ± 3.1

O [water] + C1CCNCC1
[1], x2 = 0
Conditions	kinematic viscosity [m2/s]	mass density [kg/m3]
293.15 K	9.9e-07 ± 4.9e-08	–
303.15 K	8.1e-07 ± 4.1e-08	–
313.15 K	6.66e-07 ± 3.5e-08	–
323.15 K	5.61e-07 ± 3.1e-08	988.02 ± 1.1

C1CCNC1 [pyrrolidine] + O
[1]
Conditions	kinematic viscosity, 293.15 K [m2/s]	kinematic viscosity, 303.15 K [m2/s]	kinematic viscosity, 313.15 K [m2/s]	kinematic viscosity, 323.15 K [m2/s]	mass density, 293.15 K [kg/m3]	mass density, 303.15 K [kg/m3]	mass density, 313.15 K [kg/m3]	mass density, 323.15 K [kg/m3]
x1 = 0.0057	–	–	–	–	997.13 ± 1	994.41 ± 1.1	990.83 ± 1.1	986.46 ± 1.2
x1 = 0.0101	–	–	–	–	996.33 ± 1.1	993.49 ± 1.1	989.78 ± 1.1	985.31 ± 1.2
x1 = 0.0221	1.44e-06 ± 6.8e-08	1.12e-06 ± 5.5e-08	8.8e-07 ± 4.4e-08	7.63e-07 ± 3.9e-08	994.47 ± 1.1	991.12 ± 1.1	986.92 ± 1.2	982 ± 1.2
x1 = 0.0678	2.47e-06 ± 1.1e-07	1.76e-06 ± 8.2e-08	1.34e-06 ± 6.4e-08	1.06e-06 ± 5.2e-08	989.46 ± 1.1	983.41 ± 1.2	976.91 ± 1.3	970.03 ± 1.4
x1 = 0.1158	3.52e-06 ± 1.6e-07	2.42e-06 ± 1.1e-07	1.77e-06 ± 8.2e-08	1.36e-06 ± 6.5e-08	980.95 ± 1.2	973.19 ± 1.3	965.26 ± 1.4	957.15 ± 1.5
x1 = 0.2076	4.53e-06 ± 2e-07	3.15e-06 ± 1.4e-07	2.27e-06 ± 1e-07	1.73e-06 ± 8.1e-08	962.31 ± 1.5	953.57 ± 1.6	944.65 ± 1.7	935.51 ± 1.8
x1 = 0.3039	4.78e-06 ± 2.1e-07	3.34e-06 ± 1.5e-07	2.46e-06 ± 1.1e-07	1.87e-06 ± 8.7e-08	943.39 ± 1.7	934.33 ± 1.8	925.06 ± 1.9	915.6 ± 2.1
x1 = 0.3958	4.36e-06 ± 1.9e-07	3.13e-06 ± 1.4e-07	2.31e-06 ± 1.1e-07	1.79e-06 ± 8.3e-08	928.64 ± 1.9	919.34 ± 2	909.83 ± 2.1	900.11 ± 2.3
x1 = 0.4834	3.64e-06 ± 1.6e-07	2.73e-06 ± 1.2e-07	2.08e-06 ± 9.6e-08	1.61e-06 ± 7.5e-08	917.04 ± 2	907.58 ± 2.2	897.92 ± 2.3	888.05 ± 2.4
x1 = 0.5671	2.99e-06 ± 1.3e-07	2.24e-06 ± 1e-07	1.76e-06 ± 8.2e-08	1.39e-06 ± 6.6e-08	906.1 ± 2.2	896 ± 2.3	886.2 ± 2.4	877.7 ± 2.5
x1 = 0.6858	2.13e-06 ± 9.8e-08	1.71e-06 ± 8e-08	1.37e-06 ± 6.5e-08	1.12e-06 ± 5.5e-08	893.17 ± 2.4	883.53 ± 2.5	873.7 ± 2.6	863.68 ± 2.7
x1 = 0.8675	1.31e-06 ± 6.3e-08	1.07e-06 ± 5.2e-08	9.13e-07 ± 4.6e-08	7.84e-07 ± 4e-08	872.39 ± 2.6	862.69 ± 2.7	852.81 ± 2.9	846.3 ± 2.9
x1 = 1	9.54e-07 ± 4.8e-08	8.27e-07 ± 4.2e-08	7.43e-07 ± 3.9e-08	6.41e-07 ± 3.4e-08	859.87 ± 2.8	850.11 ± 2.9	840.24 ± 3	833.88 ± 3.1
